From patent US20120270237A9, “METHODS FOR THE IDENTIFICATION OF KINASE INTERACTING MOLECULES AND FOR THE PURIFICATION OF KINASE PROTEINS” (Cellzone AG, priority 2009, published 2012)

Tests used:
Assay in all cases: Kinobeads competition binding, L-363 cell lysate
Design in all cases: endogenous in cells
Settings in all cases: 10 μM free compound, L-363 lysate
ARG = ARG (Homo sapiens, UniProt P42684)
Description: (§1) To one aliquot of cell lysate 10 μM of the free compound (FIG. 3, CZC31326) was added and allowed to bind to proteins in the lysate. Then the affinity matrix with the immobilized compound was added to capture proteins that were not interacting with the previously added free compound. Beads were separated from the lysate and bead bound proteins were eluted in SDS sample buffer and subsequently separated by SDS-Polyacrylamide gel electrophoresis (FIG. 8). Suitable gel bands were cut out and subjected to in-gel proteolytic digestion with trypsin. The second lysate aliquot was processed identically, however no free compound was added (DMSO solvent control). Peptides originating from samples 1 and 2 were labeled with iTRAQ reagents (iTRAQ 114 and iTRAQ 117) and the combined samples were analyzed with a nano-flow liquid chromatography system coupled online to a tandem mass spectrometer (LC-MS/MS) experiment followed by iTRAQ reporter ion quantification in the MS/MS spectra as described in Example 2.
(§2) For this experiment the human plasma cell leukaemia line L-363 was used (German Collection of Microorganisms and Cell Cultures, DSMZ number ACC49, Braunschweig, Germany). Cells were treated for three hours with 20 μM of the proteasome inhibitor MG132 (Z-Leu-Leu-Leu-al, Sigma C2211) prior to cell harvesting.

CK2a2 = CK2a2 (Homo sapiens, UniProt P19784)
Description: as §1, §2

GCK = target: T1, GCK (Homo sapiens, UniProt Q12851)
T1 sequence (Q12851 1-820): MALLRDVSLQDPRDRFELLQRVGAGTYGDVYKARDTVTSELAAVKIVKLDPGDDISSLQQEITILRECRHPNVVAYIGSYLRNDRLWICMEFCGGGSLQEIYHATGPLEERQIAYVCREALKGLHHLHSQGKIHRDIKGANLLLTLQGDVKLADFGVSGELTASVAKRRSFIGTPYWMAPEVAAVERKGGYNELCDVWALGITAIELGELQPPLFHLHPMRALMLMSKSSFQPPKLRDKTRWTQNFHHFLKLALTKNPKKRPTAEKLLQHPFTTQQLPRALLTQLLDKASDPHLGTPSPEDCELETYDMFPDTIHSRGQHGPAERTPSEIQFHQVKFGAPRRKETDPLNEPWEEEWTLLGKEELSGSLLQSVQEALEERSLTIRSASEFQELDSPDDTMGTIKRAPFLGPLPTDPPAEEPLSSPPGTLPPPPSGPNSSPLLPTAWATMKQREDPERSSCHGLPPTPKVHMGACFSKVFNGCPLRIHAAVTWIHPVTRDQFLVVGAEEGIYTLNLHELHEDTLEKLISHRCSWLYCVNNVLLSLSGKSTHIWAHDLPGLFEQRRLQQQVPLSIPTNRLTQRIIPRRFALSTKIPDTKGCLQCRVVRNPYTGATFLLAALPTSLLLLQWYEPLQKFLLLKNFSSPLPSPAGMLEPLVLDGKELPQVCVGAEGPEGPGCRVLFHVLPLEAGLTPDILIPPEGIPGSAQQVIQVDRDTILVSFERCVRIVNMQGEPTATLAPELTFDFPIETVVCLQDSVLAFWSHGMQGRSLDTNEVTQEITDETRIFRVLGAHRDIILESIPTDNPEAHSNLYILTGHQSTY
Description: as §1, §2

IRAK4 = target: T2, IRAK4 (Homo sapiens, UniProt Q9NWZ3)
T2 sequence (Q9NWZ3 1-460): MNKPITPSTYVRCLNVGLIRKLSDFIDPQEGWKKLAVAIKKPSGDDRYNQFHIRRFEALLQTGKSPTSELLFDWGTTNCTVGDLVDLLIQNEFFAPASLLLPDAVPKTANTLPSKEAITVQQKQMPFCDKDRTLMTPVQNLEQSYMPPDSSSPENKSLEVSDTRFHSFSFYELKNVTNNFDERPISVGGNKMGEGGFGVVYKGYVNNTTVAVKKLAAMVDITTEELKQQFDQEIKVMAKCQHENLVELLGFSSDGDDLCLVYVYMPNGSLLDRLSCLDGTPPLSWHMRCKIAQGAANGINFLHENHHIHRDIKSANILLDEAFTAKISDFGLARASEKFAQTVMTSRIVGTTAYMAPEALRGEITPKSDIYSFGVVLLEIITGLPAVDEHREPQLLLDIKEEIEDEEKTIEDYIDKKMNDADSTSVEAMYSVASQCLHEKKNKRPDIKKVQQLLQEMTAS
Description: as §1, §2

LOK = LOK (Homo sapiens, UniProt O94804)
Description: as §1, §2

PKD2 = target: T3, PKD2 (Homo sapiens, UniProt Q9BZL6)
T3 sequence (Q9BZL6 1-878): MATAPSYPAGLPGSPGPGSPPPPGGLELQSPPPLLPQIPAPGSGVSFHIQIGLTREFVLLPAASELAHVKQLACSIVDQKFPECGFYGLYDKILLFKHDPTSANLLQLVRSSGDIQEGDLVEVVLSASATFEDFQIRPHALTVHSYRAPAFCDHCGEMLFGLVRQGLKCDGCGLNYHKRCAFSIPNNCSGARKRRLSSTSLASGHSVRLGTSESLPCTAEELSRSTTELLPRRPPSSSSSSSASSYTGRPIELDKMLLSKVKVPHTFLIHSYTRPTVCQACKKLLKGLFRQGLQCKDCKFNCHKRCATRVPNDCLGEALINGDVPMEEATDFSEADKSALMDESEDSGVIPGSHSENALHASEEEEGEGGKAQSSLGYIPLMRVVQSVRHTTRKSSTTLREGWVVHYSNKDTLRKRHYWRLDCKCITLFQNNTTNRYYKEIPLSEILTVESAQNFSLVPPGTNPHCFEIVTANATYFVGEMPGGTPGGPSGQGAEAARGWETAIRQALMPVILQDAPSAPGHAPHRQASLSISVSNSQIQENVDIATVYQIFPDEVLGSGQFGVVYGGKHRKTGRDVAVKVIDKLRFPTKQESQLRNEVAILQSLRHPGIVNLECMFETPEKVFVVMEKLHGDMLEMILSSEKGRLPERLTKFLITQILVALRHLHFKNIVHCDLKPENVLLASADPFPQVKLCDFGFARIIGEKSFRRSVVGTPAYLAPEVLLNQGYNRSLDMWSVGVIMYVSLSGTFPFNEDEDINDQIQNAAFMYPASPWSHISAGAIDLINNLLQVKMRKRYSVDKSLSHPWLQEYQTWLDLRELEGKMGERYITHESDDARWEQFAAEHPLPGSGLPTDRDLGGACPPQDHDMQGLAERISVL
Description: as §1, §2

YES = YES (Homo sapiens, UniProt P07947)
Description: as §1, §2

For `CS(=O)(=O)Nc1ccccc1Nc1nc(Nc2cccc(OCCN)c2)ncc1Cl` [CZC31326, N-(2-(2-(3-(2-aminoethoxy)phenylamino)-5-chloropyrimidin-4-ylamino)phenyl)methanesulfonamide], the inhibition at 10 µM (ARG) was 95.8%, the inhibition at 10 µM (CK2a2) was 97.5% and the inhibition at 10 µM (GCK) was 95.1%. For the same molecule, the Competition % (IRAK4) was 97.4%, the Competition % (LOK) was 86.9% and the inhibition at 10 µM (PKD2) was 98%. It also gave an inhibition at 10 µM (YES) of 89.6%.
